Reference: paper PMC6602202, “Enteroendocrine peptides regulate feeding behavior via controlling intestinal contraction of the silkworm Bombyx mori” (PLoS ONE, 2019)

How the values were obtained:
B. mori larvae = test: Feeding behavioral assay (latency to first bite), 2-day-old fifth-instar larvae; assay type: in vivo, Bombyx mori; conditions: 100 μL injected dorsolaterally into the hemolymph, after 16 h diet deprivation, n = 3
Experimental: A part of the eluents of the fractions from RP-HPLC as well as synthetic peptide solutions was evaporated to dryness and dissolved in 100 μL distilled water just prior to the bioassay. The feeding cycles of 2-day-old fifth-instar B. mori larvae were synchronized by diet deprivation for 16 h. After diet deprivation, the larvae were anesthetized by submerging in icy water for 15 min. Then, 100 μL sample was injected dorsolaterally into the hemolymph. After injection, the larvae were placed in front of artificial diet blocks, and then the latency to their first bites as the initiation of feeding (first bite) after sample-injection was measured as reported previously. Statistical analysis was performed using a one-way analysis of variance (one-way ANOVA), then a post hoc Dunnett’s test. Reproducibility was confirmed at least twice by assays using different populations of larvae.

pharynx = test: Spontaneous contraction of the pharynx in dissected open larvae; parameters: species or system Bombyx mori; conditions: 10^−9–10^−5 M, 27°C, n = 5
Experimental: The opened head and abdominal portion of 2-day-old fifth-instar larvae (fed ad libitum and non-fed for 16 h) were washed twice with B. mori Ringer’s solution and incubated for 3 min at 27°C to stabilize the movement. After incubation, the contractile movements of the larval foregut and hindgut, particularly the spontaneous contraction of the pharynx and ileum (predominantly contracting area in hindgut) were observed and recorded using a digital microscope USB2.0 DigiScope II v2^TM (CHRONOS, Taipei, Taiwan). 100 μL of B. mori Ringer’s solution was added to the examined gut at 60 s after starting recording. Furthermore, 100 μL of B. mori Ringer’s solution (vehicle control) and 100 μL peptide-containing solution (10^−9–10^−5 M of peptides dissolved in B. mori Ringer’s solution) were exposed over gut at 120 s after a recording start. The contractile movements were analyzed using ImageJ software (https://imagej.net/Fiji) with the Optic flow plug-in (Gaussian window MSE). […] The position of the lines used for the kymograph analyses (x-y, z-w) were determined by Optic flow analyses. The waveform of the kymographs, corresponding to the visible contractions in the recorded movies, were quantified and converted to myograms. […] Invisible contractions in the recorded movie and extremely small amplitudes in the myograms were considered as no significant contractions. […]

esophagus = test: Esophageal contraction in intact transparent larvae; assay type: in vivo, Bombyx mori
Experimental: Transparent larvae were prepared by feeding an artificial diet containing 0.05% melamine (Wako Pure Chemical Industries) starting from 0-day-old fifth-instar larvae. […] The visible effect took place in 2-day-old fifth-instar larvae compared to normally fed larvae. The feeding behavioral assay of transparent larva was performed in the same way as that of normal larvae. Each transparent larva was surrounded with a soft sponge and held with both sides by two slide glasses. Transmitted light enabled to illuminate the shape and movement of the shadowed esophagus portion. The contraction of foregut, particularly ‘forward contraction wave’ and ‘peristaltic squeeze’ at the esophagus were observed using a digital microscope to measure the number of contractions per minute. The ‘peristaltic squeezes’ at 8 h and 16 h in non-fed larvae were unmeasurable because of the limit of detection in our observation using digital microscope. 100 μL of distilled water (vehicle control) and 100 μL peptide-containing solution (10^−7–10^−4 M of peptides dissolved in distilled water) were injected dorsolaterally into the hemolymph. After injection, the numbers of contractions per minute of the esophagus were counted from the data of 3 min observation. Statistical analysis was performed using a one-way ANOVA, then a post hoc Dunnett’s test. Reproducibility was confirmed at least twice by assay using different populations of larvae.

BNGR-A16 = conditions: cited from earlier work
[1] = 10^−7–10^−4 M, 100 μL injected dorsolaterally, fed ad libitum transparent larvae, counted over 3 min, P < 0.05, n = 5

allatotropin
effect on latency to the first bite, synthetic peptides (B. mori larvae; significant by one-way ANOVA (P < 0.01)): prolonged the latency to the first bite in a dose-dependent manner | ED50, prolongation of the latency to the first bite (B. mori larvae; synthetic peptides): 1000 nM | relative frequency of contraction, pharynx, fed ad libitum (pharynx; larvae fed ad libitum, 60–120 s vs 120–180 s): decreased relative frequency of contraction | relative frequency of contraction, pharynx, non-fed (pharynx; larvae non-fed for 16 h): decreased the frequency | forward contraction wave and peristaltic squeeze (movie) (esophagus; 10^−5 M solution injected dorsolaterally into the hemolymph): the forward contraction wave and peristaltic squeeze were inhibited | number of forward contraction waves (esophagus; [1]): decreased numbers of forward contraction waves and peristaltic squeezes in a dose-response manner | number of peristaltic squeezes (esophagus; [1]): decreased numbers of forward contraction waves and peristaltic squeezes in a dose-response manner | AT receptor assignment (BNGR-A16): the AT receptor is assigned to be BNGR-A16
